Laboratory results from ChEMBL document CHEMBL3885861, “Open TG-GATES”.

Species: Rattus norvegicus
Assay: Open TG-GATES - Regimen: Single
Type: toxicity, organism-based, Sprague-Dawley
Set-up: regimen Single, gender Male, age 6 weeks
Conditions: in vivo, po, 300 mg/kg, route gavage, dose level Middle; for APTT / Bas / Eos / Fbg / Hb / Ht / Lym / MCH / MCHC / MCV / Mono / Neu / PT / Plat / RBC / Ret / WBC: tissue Blood; for KIDNEY_L / KIDNEY_R / KIDNEY_TOTAL: tissue Kidney; for LIVER: tissue Liver; for A/G / ALP / ALT / AST / BUN / CRE / Ca / Cl / DBIL / GLC / IP / K / LDH / Na / PL / RALB / TBIL / TC / TG / TP / gamma-GTP: tissue Plasma

With `O=C(OC[C@H]1O[C@@H](OC(=O)c2cc(O)c(O)c(OC(=O)c3cc(O)c(O)c(O)c3)c2)[C@H](OC(=O)c2cc(O)c(O)c(OC(=O)c3cc(O)c(O)c(O)c3)c2)[C@@H](OC(=O)c2cc(O)c(O)c(OC(=O)c3cc(O)c(O)c(O)c3)c2)[C@@H]1OC(=O)c1cc(O)c(O)c(OC(=O)c2cc(O)c(O)c(O)c2)c1)c1cc(O)c(O)c(OC(=O)c2cc(O)c(O)c(O)c2)c1` [TANNIC ACID] the TERMINAL_BW (3 h) was 187.9 g, the APTT (3 h) was 16.5 s and the Bas (3 h) was 0%. For the same molecule, the Eos (3 h) was 1%, the Fbg (3 h) was 212 mg/dL and the Hb (3 h) was 12.7 g/dL. It also gave a Ht (3 h) of 37.9%, a Lym (3 h) of 78.6% and an MCH (3 h) of 21.9 pg. For the same molecule, the MCHC (3 h) was 33.4%, the MCV (3 h) was 65.5 fL and the Mono (3 h) was 7.6%. The Neu (3 h) was 13.4%, the PT (3 h) was 11.6 s and the Plat (3 h) was 101.9 x10_4/uL. The RBC (3 h) was 579.2 x10_4/ul, the Ret (3 h) was 9.9% and the WBC (3 h) was 113.5 x10_2/uL. The KIDNEY_L (3 h) was 0.9 g, the KIDNEY_R (3 h) was 0.9 g and the KIDNEY_TOTAL (3 h) was 1.8 g. For the same molecule, the LIVER (3 h) was 8.5 g, the A/G (3 h) was 2.2 and the ALP (3 h) was 1029.8 IU/L. It also gave an ALT (3 h) of 37.6 IU/L, an AST (3 h) of 68.6 IU/L and a BUN (3 h) of 13.6 mg/dL. For the same molecule, the CRE (3 h) was 0.5 mg/dL, the Ca (3 h) was 10.7 mg/dL and the Cl (3 h) was 105 meq/L. For the same molecule, the DBIL (3 h) was 0.02 mg/dL, the GLC (3 h) was 198 mg/dL and the IP (3 h) was 10.6 mg/dL. The K (3 h) was 4.7 meq/L, the LDH (3 h) was 85.8 IU/L and the Na (3 h) was 139.6 meq/L. The PL (3 h) was 148.4 mg/dL, the RALB (3 h) was 3.7 g/dL and the TBIL (3 h) was 0.5 mg/dL. The TC (3 h) was 81.6 mg/dL, the TG (3 h) was 42.4 mg/dL and the TP (3 h) was 5.3 g/dL. The gamma-GTP (3 h) was 1.2 IU/L, the TERMINAL_BW (6 h) was 184.2 g and the APTT (6 h) was 16.5 s. The Bas (6 h) was 0%, the Eos (6 h) was 1% and the Fbg (6 h) was 214.4 mg/dL. For the same molecule, the Hb (6 h) was 13 g/dL, the Ht (6 h) was 39.1% and the Lym (6 h) was 75.4%. The MCH (6 h) was 22 pg, the MCHC (6 h) was 33.3% and the MCV (6 h) was 66.1 fL. For the same molecule, the Mono (6 h) was 8.6%, the Neu (6 h) was 15.2% and the PT (6 h) was 12 s. The Plat (6 h) was 112.5 x10_4/uL, the RBC (6 h) was 591.4 x10_4/ul and the Ret (6 h) was 9.6%. For the same molecule, the WBC (6 h) was 93 x10_2/uL, the KIDNEY_L (6 h) was 0.9 g and the KIDNEY_R (6 h) was 0.9 g. It also gave a KIDNEY_TOTAL (6 h) of 1.8 g, an LIVER (6 h) of 8.2 g and an A/G (6 h) of 1.9. The ALP (6 h) was 784.6 IU/L, the ALT (6 h) was 38.4 IU/L and the AST (6 h) was 67.2 IU/L. For the same molecule, the BUN (6 h) was 12.2 mg/dL, the CRE (6 h) was 0.5 mg/dL and the Ca (6 h) was 10.6 mg/dL. The Cl (6 h) was 105.6 meq/L, the DBIL (6 h) was 0.03 mg/dL and the GLC (6 h) was 184.2 mg/dL. The IP (6 h) was 10.2 mg/dL, the K (6 h) was 4.8 meq/L and the LDH (6 h) was 106.8 IU/L. The Na (6 h) was 139.2 meq/L, the PL (6 h) was 133 mg/dL and the RALB (6 h) was 3.4 g/dL. The TBIL (6 h) was 0.6 mg/dL, the TC (6 h) was 74.4 mg/dL and the TG (6 h) was 32 mg/dL. It also gave a TP (6 h) of 5.2 g/dL, a gamma-GTP (6 h) of 1.4 IU/L and a TERMINAL_BW (9 h) of 182 g. The APTT (9 h) was 16.4 s, the Bas (9 h) was 0% and the Eos (9 h) was 1%. The Fbg (9 h) was 219.8 mg/dL, the Hb (9 h) was 13 g/dL and the Ht (9 h) was 39%. For the same molecule, the Lym (9 h) was 74.8%, the MCH (9 h) was 21.9 pg and the MCHC (9 h) was 33.3%. It also gave an MCV (9 h) of 65.9 fL, a Mono (9 h) of 6.8% and a Neu (9 h) of 17.2%. For the same molecule, the PT (9 h) was 12.1 s, the Plat (9 h) was 122.2 x10_4/uL and the RBC (9 h) was 592.8 x10_4/ul. It also gave a Ret (9 h) of 11%, a WBC (9 h) of 92.9 x10_2/uL and a KIDNEY_L (9 h) of 0.8 g. The KIDNEY_R (9 h) was 0.8 g, the KIDNEY_TOTAL (9 h) was 1.6 g and the LIVER (9 h) was 7.5 g. It also gave an A/G (9 h) of 2.1, an ALP (9 h) of 836.4 IU/L and an ALT (9 h) of 35 IU/L. It also gave an AST (9 h) of 60.6 IU/L, a BUN (9 h) of 12.6 mg/dL and a CRE (9 h) of 0.4 mg/dL. It also gave a Ca (9 h) of 10.4 mg/dL, a Cl (9 h) of 105.4 meq/L and a DBIL (9 h) of 0.034 mg/dL. It also gave a GLC (9 h) of 191.4 mg/dL, an IP (9 h) of 10 mg/dL and a K (9 h) of 5.1 meq/L. For the same molecule, the LDH (9 h) was 92.2 IU/L, the Na (9 h) was 137.2 meq/L and the PL (9 h) was 126.8 mg/dL. It also gave an RALB (9 h) of 3.7 g/dL, a TBIL (9 h) of 0.5 mg/dL and a TC (9 h) of 70.4 mg/dL. For the same molecule, the TG (9 h) was 32.4 mg/dL, the TP (9 h) was 5.4 g/dL and the gamma-GTP (9 h) was 1.8 IU/L. For the same molecule, the TERMINAL_BW (24 h) was 201.5 g, the APTT (24 h) was 15.9 s and the Bas (24 h) was 0%. It also gave an Eos (24 h) of 0.8%, a Fbg (24 h) of 217.8 mg/dL and a Hb (24 h) of 13 g/dL. For the same molecule, the Ht (24 h) was 38.9%, the Lym (24 h) was 75% and the MCH (24 h) was 22 pg. It also gave an MCHC (24 h) of 33.4%, an MCV (24 h) of 65.8 fL and a Mono (24 h) of 8.2%. It also gave a Neu (24 h) of 16.2%, a PT (24 h) of 11.7 s and a Plat (24 h) of 110.3 x10_4/uL. It also gave an RBC (24 h) of 591.6 x10_4/ul, a Ret (24 h) of 9.5% and a WBC (24 h) of 114.2 x10_2/uL. For the same molecule, the KIDNEY_L (24 h) was 0.9 g, the KIDNEY_R (24 h) was 0.9 g and the KIDNEY_TOTAL (24 h) was 1.8 g. It also gave an LIVER (24 h) of 10.2 g, an A/G (24 h) of 1.7 and an ALP (24 h) of 852.4 IU/L. For the same molecule, the ALT (24 h) was 44.4 IU/L, the AST (24 h) was 67.8 IU/L and the BUN (24 h) was 18.4 mg/dL. For the same molecule, the CRE (24 h) was 0.5 mg/dL, the Ca (24 h) was 10.8 mg/dL and the Cl (24 h) was 103.8 meq/L. For the same molecule, the DBIL (24 h) was 0.002 mg/dL, the GLC (24 h) was 193.8 mg/dL and the IP (24 h) was 9.1 mg/dL. It also gave a K (24 h) of 4.4 meq/L, an LDH (24 h) of 109.6 IU/L and a Na (24 h) of 138.8 meq/L. It also gave a PL (24 h) of 139 mg/dL, an RALB (24 h) of 3.5 g/dL and a TBIL (24 h) of 0.3 mg/dL. It also gave a TC (24 h) of 75.2 mg/dL, a TG (24 h) of 103.8 mg/dL and a TP (24 h) of 5.6 g/dL. It also gave a gamma-GTP (24 h) of 1.2 IU/L.
